Experimental data reported in patent US20230233544A1, “T-TYPE CALCIUM CHANNEL ENHANCER FOR TREATING TAF1 ASSOCIATED NEUROLOGICAL DEFECTS” (ARIZONA BOARD OF REGENTS ON BEHALF OF THE UNIVERSITY OF …, priority 2020, published 2023).

Tests used:
TAF1-edited animals = system: TAF1-edited animals
Description: (§1) After weaning, the rat pups were separated from the dams and maintained 4 per cage. Animals were divided into six groups. […] Rats were sacrificed at PD35. Animals were behaviorally assessed before being euthanized for histological and protein expression analysis. All biochemical, electrophysiology, and behavior experiments were performed in a blinded fashion. Animal protocols were approved by the Institutional Animal Care and Use Committee of the College of Medicine at the University of Arizona and conducted in accordance with the Guide for Care and Use of Laboratory Animals published by the National Institutes of Health.
(§2) Intracerebroventricular injections: Bilateral intracerebroventricular (ICV) injections were performed as previously described in Sprague-Dawley (SD) rat pups on postnatal day 3. Briefly, newborn SD rat puts were anesthetized by isoflurane. A 10 μl syringe (Hamilton Gastight Syringe, #1701) was used to pierce the skull (coordinates from bregma: −0.6 mm posterior, ±1.75 mm lateral/medial, and −2.5 mm ventral), and 2.5 μl of CRISPR lentivirus (gRNA-control or gRNA-TAF1) was injected into each cerebral ventricle without opening the scalp. Neonatal rat pups were kept with the dam until weaned.

cerebral cortex neurons = details: TAF1-edited animals
Description: as §1, §2

cerebral cortex = details: TAF1 edited animals; SAK3 0.25 mg/kg p.o.
Description: as §1, §2

[1] = system: AKT (phosphorylated at Ser 473); details: cortex of TAF-1 edited animals; SAK3 0.25 mg/kg p.o.
Description: as §1, §2
(§3) Rats (n=6 animals per experimental condition) were perfused with saline, and 4% formaldehyde in phosphate buffer saline (PBS) at PD 35, and the brains were extracted and post-fixed in 4% paraformaldehyde for 8 hours at 4° C. Cerebral cortex sections were cut sagittally at 20 μm using a cryostat (Microm HM 505 E). After rinsing the sections in PBS for 5 min, the sections were incubated with a 0.1% H2O2 solution in PBS for 5 min, rinsed in PBS for 5 times for 5 min, and incubated for 30 min with 0.4% Triton X-100, rinsed in PBS and blocked with 8% goat serum and 1% Triton X-100 in PBS. After blocking, the sections were incubated at 4° C. overnight with the indicated antibodies diluted in 4% goat serum in PBS. The sections were washed in 1% goat serum in PBS, incubated with secondary antibody anti-rabbit Alexa fluor 488 (Life Technologies) or anti-mouse Alexa fluor 488 (Life Technologies), as needed, in 4% goat serum for 2 h, washed with PBS 3 times for 5 mins, and incubated with DAPI (Catalogue No: D1306, Thermofisher Scientific) at a concentration of 50 ng/ml for 2 mins. Sections were then washed and further air dried, and coverslip with glycerol.

BDNF [2] = details: TAF1 edited animals; SAK3 0.25 mg/kg p.o.
Description: as §1, §2, §3

CaV3.1 T-type channel = details: TAF-1 edited animals; SAK3 0.25 mg/kg p.o.
Description: as §1, §2, §3

GFAP-positive astrocytes = details: TAF1-edited animals; SAK3 0.25 mg/kg p.o.; vs TAF1 edited group
Description: as §1, §2, §3

Iba1-positive microglia = details: TAF1-edited animals; SAK3 0.25 mg/kg p.o.; vs TAF1 edited group
Description: as §1, §2, §3

[3] = system: gRNA-TAF1 edited Purkinje cells; details: gRNA-TAF1 edited Purkinje cells in cerebellar slices
Description: as §2

[4] = system: B-cell lymphoma 2 (BcI-2); details: TAF1 edited animals; SAK3 0.25 mg/kg p.o.; Western
Description: as §1, §2
(§4) Western blotting analysis: After decapitation of animals, brain tissue from the cerebellum was dissected, snap frozen in liquid nitrogen prior to storage at −80° C. until analysis. Western blot analyses were performed as described in Janakiraman et al (Janakiraman, U., Yu, J., Moutal, A., Chinnasamy, D., Boinon, L., Batchelor, S. N., Anandhan, A., Khanna, R., and Nelson, M. A. (2019) TAF1-gene editing alters the morphology and function of the cerebellum and cerebral cortex. Neurobiol Dis 132, 104539). In brief, frozen samples were homogenized with a RIPA buffer and centrifuged at 4 °C, 20,000xg for 20 min. Supernatant protein concentrations were determined using BCA method (Catalog No: #23227, Thermo Scientific), and samples were then boiled 5 min in Laemmli's sample buffer (Catalog No: NP0008, Life Technologies). Equal amounts of protein were loaded onto and run on SDS-polyacrylamide gels (Catalog No: #4568084, Bio-Rad) and then transferred to polyvinylidene difluoride membrane (Catalog No: #1620177, Bio-Rad). After transfer, membranes were blocked with TBST solution (50 mM Tris-HCl, pH 7.5, 150 mM NaCl, and 0.1% Tween 20) containing 5% non-fat dry milk at 4 °C for 1 hour. After blocking membranes were incubated overnight at 4° C. with anti-CaMKII (pan) (1:500; Cell Signaling), anti-phospho-CaMKII (Thr-286) (1:1000; Cell Signaling), anti-cleaved caspase-3 (Asp175) (1:1000; Cell Signaling), anti-Bax (1:1000; Cell Signaling) anti-Bcl-2 (1:1000; Abcam), anti-phospho-GSK3p(Ser9) (1:1000; Cell Signaling), anti-GSK3p (1:1000; Cell Signaling), anti-BDNF (1:750; Abcam), anti-Foxp2 (1:1000; Abcam), anti-CRMP2 pThr509/Thr514 (1:1000; Kina Source Limited), anti-CRMP2 (1:1000; Sigma), and 6111-Tubulin (1:1000; Promega) in 3% BSA.

BCL2 Associated X (BAX) = details: TAF1 edited animals; SAK3 0.25 mg/kg p.o.; Western
Description: as §1, §2, §4

BDNF [5] = details: TAF1 edited animals; cerebral cortex samples; SAK3 0.25 mg/kg p.o.
Description: as §1, §2, §4

FOXP2 = details: TAF1-edited animals; SAK3 0.25 mg/kg p.o.
Description: as §1, §2, §4

Phospho (Ser 9)-GSK3β = details: SAK3 0.25 mg/kg p.o.
Description: as §1, §2, §4

cleaved caspase 3 = details: TAF1 edited animals; SAK3 0.25 mg/kg p.o.; Western
Description: as §1, §2, §4

p-CaMKII = details: cerebellum of TAF1 edited animals; SAK3 0.25 mg/kg p.o.
Description: as §1, §2, §4

[6] = system: phospho-CRMP2 (Thr 509/514); details: TAF1 edited animals; SAK3 0.25 mg/kg p.o.
Description: as §1, §2, §4

[7] = system: TAF1 Intellectual Disability Syndrome
Description: A child is brought by their parent to see their pediatrician for a routine childhood check-up. During the check-up, the pediatrician notices some minor motor deficits in the child. The pediatrician communicates their concerns about the child to their parent. […] A week later, the child is taken in for genetic testing. A month later, the child is brought back to the pediatrician's office so that the pediatrician may discuss the genetic testing results with their parents.

[8] = SAK3 0.25 mg/kg p.o. PD21 to PD35, vs TAF1-edited animals

**Q.** Which “Grooming frequency (number of groomings)” value (TAF1-edited animals; SAK3 0.25 mg/kg p.o. PD21 to PD35, open field 5 min) does the source give for CCOC(=O)C1=C(N2CCCCC2)C2(CC1=O)C(=O)N=C1C(C)=CC=CN12 (stereo not drawn) [SAK3, ethyl 8′-methyl-2′, 4-dioxo-2-(piperidin-1-yl)-2′H-spiro [cyclopent[2]ene-1,3′-imidazo[1,2-a]pyridine]-3-carboxylate] here?
**A.** blunted by SAK3 treatment

**Q.** What about the Beam crossing time (TAF1-edited animals; [8]) of the same molecule?
**A.** rescue of the beam crossing time

**Q.** What about the “Number of foot slip errors” value (TAF1-edited animals; [8]) of the same molecule?
**A.** rescue of the beam crossing time and foot slip errors

**Q.** What about the “Morphology of the cells in the cortex (Nissl staining)” value (cerebral cortex neurons; SAK3 0.25 mg/kg p.o. PD21 to PD35) of the same molecule?
**A.** improved the morphology of the cells in the cortex

**Q.** What about the “Number of viable cells in the cerebral cortex” value (cerebral cortex neurons; SAK3 0.25 mg/kg p.o., vs TAF1-edited animals) of the same molecule?
**A.** increased the number of viable cells

**Q.** What about the “Number of TUNEL positive cells” value (cerebral cortex) of the same molecule?
**A.** reduced the number of TUNEL positive cells to control levels

**Q.** And the “Activated AKT (phosphorylated at Ser 473) expression” value [1]?
**A.** prevented by SAK3 treatment

**Q.** And the “BDNF expression (immunofluorescence, BDNF-positive cells)” value (BDNF [2])?
**A.** restored BDNF expression to the levels in Naïve and gRNA-control groups

**Q.** And the “CaV3.1 T-type channel expression” value (CaV3.1 T-type channel)?
**A.** restored by SAK3 treatment

**Q.** What about the “Number of GFAP-positive cells” value (GFAP-positive astrocytes) of the same molecule?
**A.** increase the number of GFAP-positive cells

**Q.** What about the “Number of Iba1-positive cells” value (Iba1-positive microglia) of the same molecule?
**A.** decrease the number of Iba1-positive cells

**Q.** And the “Amplitudes of sEPSC” value ([3]; SAK3 0.1 nM)?
**A.** No changes

**Q.** What about the “Frequency of sEPSC” value ([3]; SAK3 0.1 nM in perfusion, held at −70 mV, mean±S.E.M.) of the same molecule?
**A.** 2.13±0.29 Hz

**Q.** And the Bcl-2 level [4]?
**A.** up-regulation of B-cell lymphoma 2 (BcI-2)

**Q.** And the BAX level (BCL2 Associated X (BAX))?
**A.** downregulation of the pro-apoptotic factor BCL2 Associated X (BAX)

**Q.** What about the “BDNF expression (Western analysis)” value (BDNF [5]) of the same molecule?
**A.** restored BDNF expression to the levels in Naïve and gRNA-control groups

**Q.** What about the FOXP2 levels (FOXP2) of the same molecule?
**A.** restored FOXP2

**Q.** And the “Phospho (Ser 9)-GSK3β levels” value (Phospho (Ser 9)-GSK3β; TAF1 edited animals, cerebral cortex samples)?
**A.** increased phopho-GSK3β levels

**Q.** What about the p-GSK3β levels (Phospho (Ser 9)-GSK3β; gRNA-TAF1 edited animals, cerebellum samples) of the same molecule?
**A.** rescued by SAK3 treatment

**Q.** And the “Activated (cleaved) caspase 3 level” value (cleaved caspase 3)?
**A.** downregulation of activated caspase 3

**Q.** What about the “CaMKII activation (phosphorylation at T286)” value (p-CaMKII) of the same molecule?
**A.** restoration of CaMKII activation in the cerebellum of SAK3 treated animals was not observed

**Q.** What about the “phospho-CRMP2 (Thr 509/514) levels” value [6] of the same molecule?
**A.** restored phospho-CRMP2 levels

**Q.** What about the “Motor skills and cognitive abilities” value ([7]; child with TAF1 ID syndrome, SAK3 composition orally, after six months) of the same molecule?
**A.** improved motor skills and cognitive abilities

**Q.** What about the Side effects ([7]; in vivo, po) of the same molecule?
**A.** No side effects reported
